Marks after values point to notes of the source that are not given here.
Legend:
rat scar model = assay: Rat scar model (skin wound healing); format: in vivo; settings: rat back wound 2.4 cm; 0.5% cream on the skin
From the text: (§1) 1.1 Preparation method of treatment cream: The excipient matrix components included methyl silicone oil (15%), stearic acid (6%), white vaseline (5%), liquid paraffin (5%), octadecanol (5%), glycerin (20%), alkylaryl polyglycol ether (1%), fatty alcohol polyoxyethylene ether (1%), […] (1%), ethyl paraben (0.1%), distilled water (about 31-55%), and mixed with appropriate amount of CLY series compounds to form a mixed emulsion. The emulsion matrix used in this embodiment refers to the matrix component after the active ingredient was removed from the emulsion.
1.2 Grouping and modeling of experimental animals: SPF grade male rats, weighing (210±28) g, from the Animal Center of Nanyi University. The rats were numbered according to their body weight and using the random array method, samples were divided into the model control group (applied cream matrix), CLY-1 treatment group (applied 0.5% CLY-1 cream on the skin), CLY-2 treatment group (applied 0.5% CLY-2 cream on the skin), CLY-3 treatment group (0.5% CLY-3 cream on the skin), CLY-4 treatment group (0.5% CLY-4 cream on the skin), CLY-8 treatment group (0.5% CLY-8 cream on the skin), CLY-11 treatment group (0.5% CLY-11 cream on the skin) CLY-19 treatment group (0.5% CLY-19 cream on the skin), CLY-36 treatment group (0.5% CLY-36 cream on the skin), and CLY-39 treatment group (0.5% CLY-39 cream on the skin), 6 in each group. Rats in each group were anesthetized by intraperitoneal injection of 2% pentobarbital sodium (120 mg/kg) and fixed on the operating table, and then chose a piece of 4×5 cm of intact skin on the back, 8% sodium sulfide hair removal, used tissue scissors to cut a wound with a diameter of 2.4 cm and a depth of muscle fascia at the hair removal site, and damage part of the muscle surface fascia. Animals were kept in separate cages to prevent rats from biting and licking. Applied 2% iodine tincture daily to the wound for routine disinfection, and observed the wound healing of rats.
The wounds were routinely disinfected every day, and the wounds of rats were observed on the 1st, 3rd, 5th, 7th, 12th, and 20th days. […] On the 12th day, the wounds in each treatment group had basically recovered, while the model group still had about 0.5 cm2 of wounds. By the 20th day, the wounds in each group had recovered, and the model control group left obvious scars, while each treatment group only left different amounts of pigmentation.

rabbit ear acne model [1] = assay: Rabbit ear acne model: macroscopic observation and histological grading; format: in vivo, New Zealand rabbits; settings: right ear, 10 per group; for number of rabbits with acne histological grading 2+: Grade 2; for number of rabbits with acne histological grading —: Level 0, without acne; for number of rabbits with acne histological grading 1+: Level 1; for number of rabbits with acne histological grading 3+: Level 3
From the text: as §1, with “(1)” for “1.1”, “alkyl aryl” for “alkylaryl”
(2) Positive therapeutic drug: 0.1% adapalene gel (Trade name: Differin, produced by Laboratoires Galderma, France).
(§2) New Zealand rabbits were, according to weights, randomly divided into the model control group (applied cream matrix), positive treatment group (applied Differin on the skin), CLY-1 external treatment group (0.25% CLY-1 cream on the skin), CLY-2 external treatment group (0.25% CLY-2 cream on the skin), CLY-3 external treatment group (0.25% CLY-3 cream on the skin), CLY-4 external treatment group (0.25% CLY-4 cream on the skin) CLY-8 external treatment group (0.25% CLY-8 cream on the skin), CLY-9 external treatment group (0.25% CLY-9 cream on the skin), CLY-11 external treatment group (0.25% CLY-11 cream on the skin), CLY-19 external treatment group (0.25% CLY-19 cream on the skin), CLY-36 external treatment group (0.25% CLY-36 cream on the skin); CLY-1 intravenous injection group (1 mg/kg·d), CLY-2 intravenous injection group (1 mg/kg·d), CLY-3 intravenous injection group (1 mg/kg·d), CLY-4 intravenous injection group (1 mg/kg·d), CLY-8 intravenous injection group (1 mg/kg·d), CLY-9 intravenous injection group (1 mg/kg·d), CLY-11 intravenous injection group (1 mg/kg·d), CLY-19 intravenous injection group (1 mg/kg·d), and CLY-36 intravenous injection group (1 mg/kg·d), with 10 in each group. Took the inner side of the rabbit's right ear for depilation treatment as the observation area, and the inner side of the left ear of all rabbits as their own negative control, and applied 95% alcohol. The inner side of the right ear of the model group and the treatment group were both coated with 2% coal tar (Alfa Aesar China, which used 95% alcohol to prepare 2% coal tar solution), and evenly applied the sterile cotton swab to the opening of the ear duct on the inner side of the rabbit's ear within the range of about 2 cm×2 cm, once a day, 0.5 mL each time, and wiped the previous application site with warm water for 14 consecutive days to establish the acne micro-pigmentation model. Visually observed the changes of local skin, including ear thickness, hardness, roughness, and whether there was a black angle plug at the hair follicle mouth. 18 hours after the last application, the sample was sacrificed and skin was taken. The skin tissue was taken from the application site by using a 5 mm punch, fixed with 10% formaldehyde, embedded in paraffin, and stained with HE. The histopathological observation and analysis were carried out.
The histological grading criteria of the acne model: 3 grades according to histological grade. […] The tight keratin embolism in the hair follicles causes severe expansion of the hair follicles, obvious hyperplasia of the sebaceous duct epithelium, skin bulges and scars, and some sebaceous glands degenerate “3±”.
(§3) SPSS16 software was used for statistical analysis. The paired t-test was used for the left and right self-contrast, and the t-test was used for the comparison between the groups, P<0.05 was statistically significant.

rabbit ear acne model [2] = assay: Rabbit ear acne model: epidermal thickness, hair follicle area, sebaceous gland diameter; format: in vivo, New Zealand rabbits; settings: rabbit right ear
From the text: as §2
The histopathological changes were observed under the microscope, and the thickness of five different epidermises on a slice was measured with the Biomias99 image analysis system, and the average value was calculated; Detected the area of the two hair follicles and the diameter of the four sebaceous glands with the same position and the most complete structure in the four sections, calculated their average values, and then subtracted the data of the left and right external auditory canal of the rabbits in each group to obtain the difference in the thickness of the left and right ear epidermis, the difference in the area of the hair follicles and the difference in the diameter of the sebaceous glands.
as §3

[3] = external use (0.25% CLY cream; positive: Differin)
[4] = intravenous injection 1 mg/kg·d

Structure (SMILES)	skin wound healing and scar formation (rat scar model)	number of rabbits with acne histological grading 2+ (rabbit ear acne model [1]; [3])	number of rabbits with acne histological grading 2+ (rabbit ear acne model [1]; [4])	number of rabbits with acne histological grading — (rabbit ear acne model [1]; [3])	number of rabbits with acne histological grading — (rabbit ear acne model [1]; [4])	number of rabbits with acne histological grading 1+ (rabbit ear acne model [1]; [3])	number of rabbits with acne histological grading 1+ (rabbit ear acne model [1]; [4])	number of rabbits with acne histological grading 3+ (rabbit ear acne model [1]; [3])	number of rabbits with acne histological grading 3+ (rabbit ear acne model [1]; [4])	epidermal thickness (rabbit ear acne model [2]; [3])	hair follicle area (rabbit ear acne model [2]; [3])	sebaceous gland diameter (rabbit ear acne model [2]; [3])	epidermal thickness (rabbit ear acne model [2]; [4])	hair follicle area (rabbit ear acne model [2]; [4])	sebaceous gland diameter (rabbit ear acne model [2]; [4])
O=C(c1ccc(-n2nnc3cccnc32)cc1)N(c1ncccc1Cl)C1CCCC(O)C1 (stereo not drawn) [CLY-4]	significantly promote skin wound healing and reduce scar formation	2	2	3	5	5	3	0	0	0.2436 ± 0.0215 mm	0.3254 ± 0.1126* mm^2	0.0958 ± 0.0456 mm	0.2363 ± 0.0235 mm	0.2465 ± 0.0923* mm^2	0.0625 ± 0.0386 mm
CCN1CCC[C@@H](N(C(=O)c2ccc(-n3nnc4cccnc43)cc2)c2ncccc2Cl)C1 [CLY-2, (R)-4-(3H-[1,2,3]triazolo[4,5-b]pyridin-3-yl)-N-(3-chloropyridin-2-yl)-N-(1-ethylpiperidin-3-yl)benzamide]	significantly promote skin wound healing and reduce scar formation	2	1	6	8	2	1	0	0	0.2348 ± 0.0169 mm	0.2639 ± 0.0934* mm^2	0.0687 ± 0.0375 mm	0.2265 ± 0.0165 mm	0.2232 ± 0.0859* mm^2	0.0496 ± 0.0298 mm
CN1CCC[C@@H](N(C(=O)c2ccc(-n3nnc4cccnc43)cc2)c2ncccc2Cl)C1 [CLY-1, (R)-4-(3H-[1,2,3]triazolo[4,5-b]pyridin-3-yl)-N-(3-chloropyridin-2-yl)-N-(1-methylpiperidin-3-yl)benzamide]	significantly promote skin wound healing and reduce scar formation	2	1	5	7	3	2	0	0	0.2376 ± 0.0182 mm	0.2736 ± 0.0967* mm^2	0.0825 ± 0.0389 mm	0.2287 ± 0.0171 mm	0.2256 ± 0.0863* mm^2	0.0536 ± 0.0312 mm
O=C(c1ccc(-c2ccccc2Cl)cc1)N(c1ncccc1Cl)[C@@H]1CCCNC1 [CLY-36]	significantly promote skin wound healing and reduce scar formation	4	2	5	7	1	1	0	0	0.2387 ± 0.0186 mm	0.2773 ± 0.0945* mm^2	0.0805 ± 0.0406 mm	0.2282 ± 0.0171 mm	0.2241 ± 0.0846* mm^2	0.0536 ± 0.0319 mm
